Calls of active or inactive are those of the source. No cut-off for these calls is given here.
What was measured:
[1] = biological target: T1, Tyrosine-protein phosphatase non-receptor type 1 (Mus musculus) (UniProt P35821); assay: Inhibition of PTP1B in differentiated mouse 3T3L1 cells assessed as increase in glucose uptake at 5 to 20 uM after 1 hr by 2-NBDG staining based fluorescence assay
T1 sequence (whole entry): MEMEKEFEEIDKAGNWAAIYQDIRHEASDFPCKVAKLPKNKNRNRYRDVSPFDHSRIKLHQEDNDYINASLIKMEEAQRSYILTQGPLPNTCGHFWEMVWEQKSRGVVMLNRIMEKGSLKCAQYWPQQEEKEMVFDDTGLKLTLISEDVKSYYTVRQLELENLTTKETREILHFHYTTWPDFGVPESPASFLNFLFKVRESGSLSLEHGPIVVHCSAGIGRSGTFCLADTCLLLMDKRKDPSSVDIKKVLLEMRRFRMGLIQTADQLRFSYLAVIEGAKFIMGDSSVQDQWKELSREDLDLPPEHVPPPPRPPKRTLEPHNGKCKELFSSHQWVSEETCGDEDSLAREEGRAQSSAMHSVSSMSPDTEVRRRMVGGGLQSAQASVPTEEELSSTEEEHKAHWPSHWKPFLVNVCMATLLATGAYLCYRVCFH

[2] = biological target: T2, Tyrosine-protein phosphatase non-receptor type 1 (Homo sapiens, UniProt P18031); assay: Inhibition of recombinant human PTP1B using pNPP as substrate after 30 mins
T2 sequence (P18031 whole entry): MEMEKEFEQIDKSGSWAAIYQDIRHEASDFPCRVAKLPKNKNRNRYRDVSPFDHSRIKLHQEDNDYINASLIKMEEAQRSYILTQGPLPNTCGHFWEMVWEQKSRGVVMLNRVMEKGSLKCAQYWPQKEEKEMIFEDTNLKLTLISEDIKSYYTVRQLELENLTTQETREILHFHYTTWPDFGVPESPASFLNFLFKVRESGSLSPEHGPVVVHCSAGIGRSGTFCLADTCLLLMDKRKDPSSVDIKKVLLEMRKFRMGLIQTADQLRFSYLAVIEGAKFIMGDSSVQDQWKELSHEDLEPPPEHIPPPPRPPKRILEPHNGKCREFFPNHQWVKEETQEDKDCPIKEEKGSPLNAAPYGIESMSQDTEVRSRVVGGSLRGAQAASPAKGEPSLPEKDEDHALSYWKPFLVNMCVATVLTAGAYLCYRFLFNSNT

[3] = biological target: T1, Tyrosine-protein phosphatase non-receptor type 1 (Mus musculus); assay: Inhibition of PTP1B in differentiated mouse 3T3L1 cells assessed as increase in glucose uptake at 20 uM after 1 hr by […] staining based fluorescence microscopic assay
C2C12 = assay: Cytotoxicity against mouse C2C12 cells assessed as reduction in cell viability at 20 uM after 24 hrs by MTT assay; format: cell-based; details: c2c12, 24 h
[4] = biological target: T1, Tyrosine-protein phosphatase non-receptor type 1 (Mus musculus); assay: Inhibition of PTP1B in differentiated mouse C2C12 cells assessed as upregulation of ACC phosphorylation at Ser-79 residue at 0.2 mM after 30 mins by Western blot assay
[5] = biological target: T1, Tyrosine-protein phosphatase non-receptor type 1 (Mus musculus); assay: Inhibition of PTP1B in differentiated mouse C2C12 cells assessed as upregulation of AMPKalpha phosphorylation at Thr-172 residue at 20 uM after 3 hrs by Western blot assay
[6] = biological target: T1, Tyrosine-protein phosphatase non-receptor type 1 (Mus musculus); assay: Inhibition of PTP1B in differentiated mouse C2C12 cells assessed as upregulation of ACC phosphorylation at Ser-79 residue at 20 uM after 30 mins by Western blot assay
[7] = biological target: Mitogen-activated protein kinase 1 and 3 (ERK2 and ERK1) (Mus musculus) (UniProt P63085+Q63844); assay: Upregulation of ERK1/2 phosphorylation at p44 residue in differentiated mouse C2C12 cells at 10 to 20 uM preincubated for 2 hrs followed by insulin addition measured after 15 mins by Western blot assay
Sequence of Mitogen-activated protein kinase 1 and 3 (ERK2 and ERK1) (Mus musculus) (P63085 whole entry, looked up): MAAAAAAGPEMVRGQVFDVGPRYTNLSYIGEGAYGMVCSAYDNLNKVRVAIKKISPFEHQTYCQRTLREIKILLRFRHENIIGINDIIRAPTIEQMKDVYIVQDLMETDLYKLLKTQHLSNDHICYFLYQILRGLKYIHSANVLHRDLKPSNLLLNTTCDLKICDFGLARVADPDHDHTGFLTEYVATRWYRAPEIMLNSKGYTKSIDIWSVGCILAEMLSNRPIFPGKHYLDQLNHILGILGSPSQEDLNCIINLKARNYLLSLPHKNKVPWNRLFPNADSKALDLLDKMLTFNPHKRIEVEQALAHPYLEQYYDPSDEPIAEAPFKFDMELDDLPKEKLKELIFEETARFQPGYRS
Sequence of Mitogen-activated protein kinase 1 and 3 (ERK2 and ERK1) (Mus musculus) (Q63844 whole entry, looked up): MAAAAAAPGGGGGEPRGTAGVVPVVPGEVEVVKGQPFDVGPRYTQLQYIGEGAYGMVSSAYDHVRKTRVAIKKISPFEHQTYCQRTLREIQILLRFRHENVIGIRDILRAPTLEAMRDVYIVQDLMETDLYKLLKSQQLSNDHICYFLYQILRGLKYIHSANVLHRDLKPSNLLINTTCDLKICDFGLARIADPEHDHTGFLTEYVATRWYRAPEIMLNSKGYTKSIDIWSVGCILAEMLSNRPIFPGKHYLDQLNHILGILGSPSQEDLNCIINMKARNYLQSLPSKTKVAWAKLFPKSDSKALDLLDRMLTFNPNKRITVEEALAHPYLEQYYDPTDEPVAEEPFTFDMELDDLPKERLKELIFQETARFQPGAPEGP

Structure (SMILES)	inhibition [1]	IC50 [2]	inhibition [3]	inhibition [4]	inhibition [5]	inhibition [6]	Activity [7]	Activity (C2C12)
CC1(C)C[C@@H]2C[C@](C)(O)C(=O)C=C1O2		27 µM						
C=C1CC/C=C(\COC(C)=O)CC[C@@H](C(C)C)[C@@H](O)[C@@H]1O	Active	7.3 µM	Active		inactive	Active	Active	Non-Toxic

More lines, main results first:

inhibition [1]	IC50 [2]	inhibition [3]	inhibition [4]	inhibition [5]	inhibition [6]	Activity [7]	Structure (SMILES)	Activity (C2C12)
Active	23.6 µM	Active					C=C(C)C1=CC[C@@]2(C)[C@H]1[C@H]1CC[C@@H]3[C@@]4(C)CC[C@H](OC(=O)CCCCCCCCCCCCCCC)C(C)(C)[C@@H]4CC[C@@]3(C)[C@]1(C)C[C@@H]2O	Non-Toxic
	17.6 µM						CC1(C)[C@@H]2CC(=O)[C@@]1(C)C[C@@H]2O	
			Active				NC(=O)c1ncn([C@@H]2O[C@H](CO)[C@@H](O)[C@H]2O)c1N	

Source: ChEMBL document CHEMBL4043257, “PTP1B inhibitors from the seeds of Iris sanguinea and their insulin mimetic activities via AMPK and ACC phosphorylation” (Bioorg Med Chem Lett, 2017)
